{
  "source": "patent US20230265483A1",
  "about": "“METHODS FOR TESTING ANDEXANET POTENCY” (Alexion Pharmaceuticals, Inc., priority 2020, published 2023)",
  "key": {"bovine fXa (BFXa)": {"molecular_target": "T1, bovine fXa (BFXa) (Bos taurus, UniProt P00743)", "T1 construct": "purchased Hyphen BioMed (France) BE1010/BE101K", "T1 sequence (P00743 234-492 limits assumed)": "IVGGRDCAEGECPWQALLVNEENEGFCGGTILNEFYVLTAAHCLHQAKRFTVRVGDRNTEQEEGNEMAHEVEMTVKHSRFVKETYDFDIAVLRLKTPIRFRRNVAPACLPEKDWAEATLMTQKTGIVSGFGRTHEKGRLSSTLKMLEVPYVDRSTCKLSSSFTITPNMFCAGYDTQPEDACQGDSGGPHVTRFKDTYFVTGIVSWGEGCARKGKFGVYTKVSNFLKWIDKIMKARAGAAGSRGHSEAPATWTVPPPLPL", "T1 sequence (P00743 41-180 partner limits assumed)": "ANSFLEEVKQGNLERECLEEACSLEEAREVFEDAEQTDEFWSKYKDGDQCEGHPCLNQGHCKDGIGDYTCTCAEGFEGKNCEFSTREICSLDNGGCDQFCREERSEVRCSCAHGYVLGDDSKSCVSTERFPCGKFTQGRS", "test": "Inhibition of bovine fXa by betrixaban", "type": "biochemical", "settings": "in words"}, "BFXa": {"molecular_target": "T2, BFXa (Bos taurus, UniProt P00743)", "T2 construct": "purchased Hyphen BioMed (France) BE1010/BE101K", "T2 sequence (P00743 234-492 limits assumed)": "as the sequence (P00743 234-492 limits assumed) above", "T2 sequence (P00743 41-180 partner limits assumed)": "as the sequence (P00743 41-180 partner limits assumed) above", "test": "Direct potency assay with BFXa/betrixaban mixture", "type": "biochemical, bovine", "settings": "BFXa (1×)/betrixaban (1×) vs HFXa (1×)/betrixaban (1×), no andexanet", "protocol": "The stock solutions for HFXa, BFXa and betrixaban were first prepared separately. FXa/betrixaban mixture was prepared by mixing different volumes of the stock solutions of FXa and betrixban, resulting in HFXa/betrixaban or BFXa/betrixaban. The FXa/betrixaban mixture (50 μL) was added to the reaction mixture as described in the direct potency assay. The HFXa (1×)/betrixaban (1×) mixture (O) was used as a control.\nPreparation of fXa and Betrixaban (fXa Inhibitor) • a) Dilute the fXa to 50 μg/mL then further dilute to 1.0 μg/mL in assay buffer. • b) Dilute fXa inhibitor (226 μg/mL betrixaban stock) to 40 ng/mL in assay buffer as described in the table below. • c) Add equal volumes of diluted fXa and fXa inhibitor (betrixaban) into an appropriate container by combining 6 mL of FXa at 1.0 μg/mL and 6 mL of fXa inhibitor at 40 ng/mL. Mix well. • 4. Preparation of fXa and fXa Inhibitor Controls • a) Prepare the fXa control by mixing 100 μL of diluted fXa with 300 μL of assay buffer. • b) Prepare fXa inhibitor (betrixaban) control by mixing 200 μL of the fXa inhibitor mixture and 200 μL assay buffer. • 5. Transfer 50 μL/well of reference standard (RS), assay control (CTRL) and test samples (TS) to the assay plate. • 6. […] Read the microplate at 405 nm as the test wavelength and 490 nm as the reference wavelength. • 14. […]"}},
  "data": [
    {"smiles": "COc1ccc(NC(=O)c2ccc(C(=N)N(C)C)cc2)c(C(=O)Nc2ccc(Cl)cn2)c1", "note": "[betrixaban]", "values": [
      {"measurement": "potency of inhibition of bovine fXa compared with human fXa", "setting": "bovine fXa (BFXa)", "result": "less potent"},
      {"measurement": "inhibition of BFXa activity (background in absence of andexanet)", "setting": "BFXa", "result": "less inhibition of BFXa activity"}
    ]}
  ]
}
